System: HaCaT cells
Assay: Normalized expression of target genes in HaCaT cells stimulated with TNFα and IFNγ in presence/absence of JAK inhibitors (QuantiGene Plex)
Type: cell-based, human
Details: for MFI, normalized expression of IYK2: gene IYK2; for MFI, normalized expression of IYK2 / MFI, normalized expression of TNF / MFI, normalized expression of VEGFA: HaCaT, normalized to HPRT1, mean ± standard error; for MFI, normalized expression of TNF: gene TNF; for MFI, normalized expression of VEGFA: gene VEGFA
Description: Transformed human keratinocyte (HaCaT) cells were purchased from AddexBio (Catalog #T0020001) and cultured as outlined in Example 5. […] After 48 hours, cell culture media was removed from 24 well plates and replaced with 250 uL of media containing serial diluted drug, then incubated for 15 minutes at 37° C./5% CO2. After drug incubation, 250 uL of combinatory stimulation containing Recombinant Human Interferon gamma (R&D Systems, Catalog #285-IF-100) and Recombinant Human Tumor Necrosis Factor alpha (R&D Systems, Catalog #210-TA-020) was added to plates. The final concentration of Recombinant Human Interferon gamma and Recombinant Human Tumor Necrosis Factor alpha was 25 ng/mL of each cytokine. Cytokine stimulation added to wells containing drug brought the final concentrations for each drug treatment to 25 nM, 50 nM, 100 nM, and 200 nM. Treated plates were mixed by gentle agitation for 30 seconds then incubated for 24 hours at 37° C./5% CO2. At the end of the 24 hour incubation media was immediately removed from each plate.
RNA was isolated from HaCaT cells using the QuantiGene Plex Assay reagents and protocols (Affymetrix, Catalog #QGP-232-M18042302) according to the manufacturer's guidelines. Cells were washed with 1×DPBS then lysed by incubation with provided QuantiGene lysis buffer for 30 minutes at 50-55° C. Cell lysates were incubated for 18-24 hours at 55° C. with capture beads and probe set designed to specifically hybridize to mRNA from targets of interest. Genes included housekeeping genes (e.g., HPRT1 and GAPDH) used for the normalization of the results. After the 18-24 hour incubation signal was amplified utilizing branched DNA methodologies, according to the manufacturer's procedures (Affymetrix, Catalog #QGP-232-M18042302). After hybridization and wash steps assay plate was read on the Luminex 200 and data were expressed as Net Median Fluorescence Intensity. Data was then normalized to the Net Median Fluorescence Intensity of the housekeeping gene HPRT1 (Table 14).

[1] = TNFα+IFNγ 25 ng/mL, Drug Conc 25 nM
[2] = TNFα+IFNγ 25 ng/mL, Drug Conc 50 nM
[3] = TNFα+IFNγ 25 ng/mL, Drug Conc 100 nM
[4] = TNFα+IFNγ 25 ng/mL, Drug Conc 200 nM
[5] = TNFα (25 ng/mL) and IFNγ (25 ng/mL), 1st (lowest, likely 25 nM) of 4 drug conc
[6] = TNFα (25 ng/mL) and IFNγ (25 ng/mL), 2nd (likely 50 nM) of 4 drug conc
[7] = TNFα (25 ng/mL) and IFNγ (25 ng/mL), 3rd (likely 100 nM) of 4 drug conc
[8] = TNFα (25 ng/mL) and IFNγ (25 ng/mL), 4th (highest, likely 200 nM) of 4 drug conc
[9] = drug without TNFα/IFNγ stimulation
[10] = no stimulation, Drug Conc 200 nM

C[C@@H](O)c1nc2cnc3ccsc3c2n1[C@H]1CC[C@H](CC#N)OC1 [Cpd D, ((2R,5S)-5-{2-[(1R)-1-hydroxyethyl]-1H-imidazo[4,5-d]thieno[3,2-b]pyridin-1-yl}tetrahydro-2H-pyran-2-yl)acetonitrile]
AREG normalized expression MFI [1]: 725.6 ± 33.78
CCL17 normalized expression MFI [1]: 3.08 ± 0.64
CCL18 normalized expression MFI [1]: 1.89 ± 0.28
FLG normalized expression MFI [1]: 71.27 ± 11.09
IL6 normalized expression MFI [1]: 132.28 ± 7.41
IL8 normalized expression MFI [1]: 398.64 ± 22.41
IL17A normalized expression MFI [1]: 1.05 ± 0.18
IL22 normalized expression MFI [1]: 1.39 ± 0.23
IL23A normalized expression MFI [1]: 48.01 ± 2.69
IL31 normalized expression MFI [1]: 1.99 ± 0.4
ILIA normalized expression MFI [1]: 1269.66 ± 50.59
JAK1 normalized expression MFI [1]: 200.4 ± 9.84
JAK2 normalized expression MFI [1]: 108.89 ± 3.25
JAK3 normalized expression MFI [1]: 0.97 ± 0.18
LOR normalized expression MFI [1]: 23 ± 9.47
S100A7 normalized expression MFI [1]: 5.37 ± 1.3
S100A12 normalized expression MFI [1]: 1.31 ± 0.18
SERPINB3 normalized expression MFI [1]: 2 ± 0.3
SERPINB4 normalized expression MFI [1]: 2.78 ± 0.31
STAT1 normalized expression MFI [1]: 3156.82 ± 244.78
STAT3 normalized expression MFI [1]: 1572.76 ± 65.5
STAT4 normalized expression MFI [1]: 5.4 ± 0.45
STAT5A normalized expression MFI [1]: 20.12 ± 1.29
STAT5B normalized expression MFI [1]: 38.56 ± 2.02
STAT6 normalized expression MFI [1]: 1042.76 ± 29.23
AREG normalized expression MFI [2]: 778.42 ± 44.28
CCL17 normalized expression MFI [2]: 2.71 ± 0.41
CCL18 normalized expression MFI [2]: 2.16 ± 0.22
FLG normalized expression MFI [2]: 78.47 ± 10.63
IL6 normalized expression MFI [2]: 137.61 ± 5.87
IL8 normalized expression MFI [2]: 417.47 ± 21.97
IL17A normalized expression MFI [2]: 1.06 ± 0.15
IL22 normalized expression MFI [2]: 1.4 ± 0.21
IL23A normalized expression MFI [2]: 56.64 ± 3.44
IL31 normalized expression MFI [2]: 1.82 ± 0.44
ILIA normalized expression MFI [2]: 1336.95 ± 50.97
JAK1 normalized expression MFI [2]: 210.52 ± 7.73
JAK2 normalized expression MFI [2]: 106.83 ± 5.94
JAK3 normalized expression MFI [2]: 0.99 ± 0.2
LOR normalized expression MFI [2]: 28.28 ± 10.86
S100A7 normalized expression MFI [2]: 5.94 ± 1.23
S100A12 normalized expression MFI [2]: 1.11 ± 0.18
SERPINB3 normalized expression MFI [2]: 2.54 ± 0.33
SERPINB4 normalized expression MFI [2]: 3.2 ± 0.53
STAT1 normalized expression MFI [2]: 3009.6 ± 169.64
STAT3 normalized expression MFI [2]: 1543.4 ± 58.65
STAT4 normalized expression MFI [2]: 6.1 ± 0.36
STAT5A normalized expression MFI [2]: 22.69 ± 1.71
STAT5B normalized expression MFI [2]: 40.76 ± 1.91
STAT6 normalized expression MFI [2]: 1046.46 ± 29.12
AREG normalized expression MFI [3]: 703.3 ± 37.3
CCL17 normalized expression MFI [3]: 2.86 ± 0.3
CCL18 normalized expression MFI [3]: 1.74 ± 0.26
FLG normalized expression MFI [3]: 69.64 ± 9.33
IL6 normalized expression MFI [3]: 122.46 ± 5.35
IL8 normalized expression MFI [3]: 410.72 ± 29.84
IL17A normalized expression MFI [3]: 0.84 ± 0.16
IL22 normalized expression MFI [3]: 1.24 ± 0.22
IL23A normalized expression MFI [3]: 51.42 ± 2.55
IL31 normalized expression MFI [3]: 1.61 ± 0.35
ILIA normalized expression MFI [3]: 1244.96 ± 41.03
JAK1 normalized expression MFI [3]: 200.25 ± 8.15
JAK2 normalized expression MFI [3]: 102.64 ± 3.52
JAK3 normalized expression MFI [3]: 1.01 ± 0.17
LOR normalized expression MFI [3]: 21.29 ± 9.59
S100A7 normalized expression MFI [3]: 4.6 ± 1.68
S100A12 normalized expression MFI [3]: 1.12 ± 0.15
SERPINB3 normalized expression MFI [3]: 2 ± 0.26
SERPINB4 normalized expression MFI [3]: 2.64 ± 0.3
STAT1 normalized expression MFI [3]: 2991.9 ± 200.56
STAT3 normalized expression MFI [3]: 1549.17 ± 89.41
STAT4 normalized expression MFI [3]: 5.83 ± 0.34
STAT5A normalized expression MFI [3]: 19.54 ± 1.34
STAT5B normalized expression MFI [3]: 40.91 ± 2.17
STAT6 normalized expression MFI [3]: 985.1 ± 39.79
AREG normalized expression MFI [4]: 713.33 ± 37.27
CCL17 normalized expression MFI [4]: 2.34 ± 0.4
CCL18 normalized expression MFI [4]: 1.57 ± 0.3
FLG normalized expression MFI [4]: 72.06 ± 11.85
IL6 normalized expression MFI [4]: 119.49 ± 4.42
IL8 normalized expression MFI [4]: 367.56 ± 17.81
IL17A normalized expression MFI [4]: 0.82 ± 0.13
IL22 normalized expression MFI [4]: 1.28 ± 0.2
IL23A normalized expression MFI [4]: 53.83 ± 3.54
IL31 normalized expression MFI [4]: 1.51 ± 0.36
ILIA normalized expression MFI [4]: 1163.14 ± 26.71
JAK1 normalized expression MFI [4]: 190.53 ± 7.68
JAK2 normalized expression MFI [4]: 92.21 ± 2.9
JAK3 normalized expression MFI [4]: 0.86 ± 0.16
LOR normalized expression MFI [4]: 17 ± 7.28
S100A7 normalized expression MFI [4]: 3.77 ± 0.91
S100A12 normalized expression MFI [4]: 0.91 ± 0.14
SERPINB3 normalized expression MFI [4]: 1.69 ± 0.29
SERPINB4 normalized expression MFI [4]: 2.33 ± 0.38
STAT1 normalized expression MFI [4]: 3154.11 ± 139.56
STAT3 normalized expression MFI [4]: 1570.19 ± 51.51
STAT4 normalized expression MFI [4]: 5.42 ± 0.52
STAT5A normalized expression MFI [4]: 18.33 ± 1.83
STAT5B normalized expression MFI [4]: 36.62 ± 1.7
STAT6 normalized expression MFI [4]: 1013.25 ± 17.15
MFI, normalized expression of IYK2 [5]: 283.93 ± 8.16
MFI, normalized expression of IYK2 [6]: 307.36 ± 14.87
MFI, normalized expression of IYK2 [7]: 280.63 ± 10.46
MFI, normalized expression of IYK2 [8]: 283.28 ± 10.88
MFI, normalized expression of IYK2 [9]: 217.28 ± 10.09
MFI, normalized expression of TNF [5]: 26.07 ± 1.13
MFI, normalized expression of TNF [6]: 29.31 ± 2.52
MFI, normalized expression of TNF [7]: 27.59 ± 1.64
MFI, normalized expression of TNF [8]: 27.63 ± 2.3
MFI, normalized expression of TNF [9]: 1.59 ± 0.22
MFI, normalized expression of VEGFA [5]: 600.98 ± 13.99
MFI, normalized expression of VEGFA [6]: 582.24 ± 17.89
MFI, normalized expression of VEGFA [7]: 572.2 ± 19.67
MFI, normalized expression of VEGFA [8]: 541.01 ± 9.94
MFI, normalized expression of VEGFA [9]: 210.34 ± 9.72
AREG normalized expression MFI [10]: 251.8 ± 23.68
CCL17 normalized expression MFI [10]: 0.94 ± 0.14
CCL18 normalized expression MFI [10]: 0.95 ± 0.19
FLG normalized expression MFI [10]: 219.44 ± 34.83
IL6 normalized expression MFI [10]: 5.15 ± 0.31
IL8 normalized expression MFI [10]: 58.9 ± 5.89
IL17A normalized expression MFI [10]: 0.43 ± 0.08
IL22 normalized expression MFI [10]: 0.62 ± 0.11
IL23A normalized expression MFI [10]: 9.55 ± 1.15
IL31 normalized expression MFI [10]: 0.91 ± 0.23
ILIA normalized expression MFI [10]: 84.51 ± 7.04
JAK1 normalized expression MFI [10]: 171.53 ± 9.49
JAK2 normalized expression MFI [10]: 25.25 ± 1.04
JAK3 normalized expression MFI [10]: 0.53 ± 0.09
LOR normalized expression MFI [10]: 12.79 ± 4.84
S100A7 normalized expression MFI [10]: 3.69 ± 0.84
S100A12 normalized expression MFI [10]: 0.61 ± 0.11
SERPINB3 normalized expression MFI [10]: 1.5 ± 0.27
SERPINB4 normalized expression MFI [10]: 1.84 ± 0.42
STAT1 normalized expression MFI [10]: 549.79 ± 12.18
STAT3 normalized expression MFI [10]: 750.9 ± 27.68
STAT4 normalized expression MFI [10]: 3.75 ± 0.33
STAT5A normalized expression MFI [10]: 1.12 ± 0.19
STAT5B normalized expression MFI [10]: 54.64 ± 4.79
STAT6 normalized expression MFI [10]: 762.04 ± 9.44

From patent US12498382B2, “Biomarkers for vitiligo” (INCYTE CORPORATION, priority 2019, dated 2025)
